Experimental data published in patent US9115101B2 (Genentech, Inc., priority 2012, dated 2015).

biological target: T1, RORc ligand binding domain (Homo sapiens, UniProt P51449); assay: In Vitro RORc Ligand Binding Assay (25-[3H]hydroxycholesterol radioligand filtration); conditions: In Vitro RORc Ligand Binding Assay; Table 4; read-out: RORc IC50
T1 construct: host or cells: E. coli
T1 sequence (P51449 269-508 limits assumed): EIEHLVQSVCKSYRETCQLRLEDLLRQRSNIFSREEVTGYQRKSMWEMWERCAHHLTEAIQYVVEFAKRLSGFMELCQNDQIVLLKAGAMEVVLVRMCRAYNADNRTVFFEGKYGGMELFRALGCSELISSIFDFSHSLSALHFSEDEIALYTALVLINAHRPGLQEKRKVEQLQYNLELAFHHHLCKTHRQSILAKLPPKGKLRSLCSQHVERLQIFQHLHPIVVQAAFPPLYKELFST

`C[C@H]1CCC(c2ccccc2)S(=O)(=O)N1Cc1ccc(N[C@H]2CC[C@@H](C#N)CC2)cc1F` (single isomer, unassigned) [Example 97] and `C[C@H]1CCC(c2ccccc2)S(=O)(=O)N1Cc1ccc(N[C@H]2CC[C@H](C#N)CC2)cc1F` (single isomer, unassigned) [Example 111] are within 1.5-fold of each other in IC50: 40 nM for the first, 49 nM for the second.

Going from `C[C@H]1CCC(c2ccccc2)S(=O)(=O)N1Cc1ccc(N2CCC3(CC2)COC3)cc1F` (single isomer, unassigned) [Example 99] to `C[C@H]1CCC(c2ccccc2)S(=O)(=O)N1Cc1ccc(N2CCC3(COC3)C2)cc1F` (single isomer, unassigned) [Example 102], the IC50 falls from 44 nM to 25 nM (1.8-fold). The second is the more potent here.

Going from `C[C@H]1CCC(c2ccccc2)S(=O)(=O)N1Cc1ccc(N2CCC3(CC2)COC3)cc1F` (single isomer, unassigned) [Example 100] to `C[C@H]1CCC(c2ccccc2)S(=O)(=O)N1Cc1ccc(N2CCC3(COC3)C2)cc1F` (single isomer, unassigned) [Example 107], the IC50 rises from 12 nM to 20 nM (1.7-fold). The first is the more potent here.

Going from `C[C@H]1CCC(c2ccccc2)S(=O)(=O)N1Cc1ccc(N2CCC(S(=O)(=O)N(C)C)CC2)cc1F` (single isomer, unassigned) [Example 103] to `C[C@H]1CCC(c2ccccc2)S(=O)(=O)N1Cc1ccc(N2CCC(CS(C)(=O)=O)CC2)cc1F` (single isomer, unassigned) [Example 104], the IC50 falls from 146 nM to 54 nM (2.7-fold).

Going from `C[C@H]1CCC(c2ccccc2)S(=O)(=O)N1Cc1ccc(N2CCC(CS(C)(=O)=O)CC2)cc1F` (single isomer, unassigned) [Example 105] to `C[C@H]1CCC(c2ccccc2)S(=O)(=O)N1Cc1ccc(N2CCC(S(=O)(=O)N(C)C)CC2)cc1F` (single isomer, unassigned) [Example 109], the IC50 rises from 18 nM to 34 nM (1.9-fold). The first is the more potent here.

`C[C@H]1CCC(c2ccccc2)S(=O)(=O)N1Cc1ccc(N2CC(C3CCOCC3)C2)cc1F` (single isomer, unassigned) [Example 106] and `C[C@H]1CCC(c2ccccc2)S(=O)(=O)N1Cc1ccc(N2CCC(n3cnnc3)CC2)cc1F` (single isomer, unassigned) [Example 150] are within 1.5-fold of each other in IC50: 20 nM for the first, 29 nM for the second.

`C[C@H]1CCC(c2ccccc2)S(=O)(=O)N1Cc1ccc(N2CC(C3CCOCC3)C2)cc1F` (single isomer, unassigned) [Example 108] and `C[C@H]1CCC(c2ccccc2)S(=O)(=O)N1Cc1ccc(N2CCC(n3cnnc3)CC2)cc1F` (single isomer, unassigned) [Example 151] are within 1.5-fold of each other in IC50: 33 nM for the first, 27 nM for the second.

`C[C@H]1CCC(c2ccccc2)S(=O)(=O)N1Cc1ccc(N[C@H]2CC[C@@H](C#N)CC2)cc1F` (single isomer, unassigned) [Example 110] and `C[C@H]1CCC(c2ccccc2)S(=O)(=O)N1Cc1ccc(N[C@H]2CC[C@H](C#N)CC2)cc1F` (single isomer, unassigned) [Example 112] are within 1.5-fold of each other in IC50: 35 nM for the first, 30 nM for the second.

Compared with `CC(=O)N1CCN(c2ccc(CN3[C@@H](C)CCC(c4ccccc4)S3(=O)=O)cc2C#N)CC1` (single isomer, unassigned) [Example 113], `CC(=O)N1CCN(c2ccc(CN3[C@@H](C)CCC(c4ccccc4)S3(=O)=O)cc2C)CC1` (single isomer, unassigned) [Example 129] is 6.4-fold lower in IC50: 2750 nM for the first, 432 nM for the second.

First: CC(=O)N1CCN(c2ccc(CN3[C@@H](C)CCC(c4ccccc4)S3(=O)=O)cc2C#N)CC1 (single isomer, unassigned) [Example 114]
Second: CC(=O)N1CCN(c2ccc(CN3[C@@H](C)CCC(c4ccccc4)S3(=O)=O)cc2C)CC1 (single isomer, unassigned) [Example 130]
The IC50 of the first is 2.8-fold higher: 201 nM for the first, 72 nM for the second. The second is the more potent here.

First: CC(=O)N1CCN(c2ccc(CN3[C@@H](C)CCC(c4ccccc4F)S3(=O)=O)c(F)c2)CC1 (single isomer, unassigned) [Example 116]
Second: CC(=O)N1CCN(c2ccc(CN3[C@@H](C)CCC(c4cccc(F)c4)S3(=O)=O)c(F)c2)CC1 (single isomer, unassigned) [Example 127]
The IC50 of the first is 1.6-fold lower: 37 nM for the first, 58 nM for the second. The first is the more potent here.

Compared with `CC(=O)N1CCN(c2ccc(CN3[C@@H](C)CCC(c4ccccc4F)S3(=O)=O)c(F)c2)CC1` (single isomer, unassigned) [Example 117], `CC(=O)N1CCN(c2ccc(CN3[C@@H](C)CCC(c4cccc(F)c4)S3(=O)=O)c(F)c2)CC1` (single isomer, unassigned) [Example 128] is 17-fold higher in IC50: 3 nM for the first, 52 nM for the second.

Compared with `CC(=O)N1CCN(c2ccc(CN3CC(C)CC(c4ccccc4)S3(=O)=O)c(F)c2)CC1` (single isomer, unassigned) [Example 118, 1-{4-[3-Fluoro-4-(4-methyl-1,1-dioxo-6-phenyl-[1,2]thiazinan-2-ylmethyl)-phenyl]-piperazin-1-yl}-ethanone], `CC(=O)N1CCN(c2ccc(CN3[C@@H](C)CCC(c4ccccc4)S3(=O)=O)c(C)c2)CC1` (single isomer, unassigned) [Example 131] is 25-fold higher in IC50: 20 nM for the first, 501 nM for the second. The first is the more potent here.

Compared with `CC(=O)N1CCN(c2ccc(CN3CC(C)CC(c4ccccc4)S3(=O)=O)c(F)c2)CC1` (single isomer, unassigned) [Example 119, 1-{4-[3-Fluoro-4-(4-methyl-1,1-dioxo-6-phenyl-[1,2]thiazinan-2-ylmethyl)-phenyl]-piperazin-1-yl}-ethanone], `CC(=O)N1CCN(c2ccc(CN3[C@@H](C)CCC(c4ccccc4)S3(=O)=O)c(C)c2)CC1` (single isomer, unassigned) [Example 132] is 2000-fold higher in IC50: 2 nM for the first, 3930 nM for the second.

Going from `CC(=O)N1CCN(c2ccc(CN3[C@@H](C)CCC(c4ccc(F)cc4)S3(=O)=O)c(F)c2)CC1` (single isomer, unassigned) [Example 121] to `COc1cc(N2CCN(C(C)=O)CC2)ccc1CN1[C@@H](C)CCC(c2ccccc2)S1(=O)=O` (single isomer, unassigned) [Example 159], the IC50 rises from 14 nM to 1610 nM (120-fold). The first is the more potent here.

Compared with `CC(=O)N1CCN(c2ccc(CN3[C@@H](C)CCC(c4ccc(F)cc4)S3(=O)=O)c(F)c2)CC1` (single isomer, unassigned) [Example 122], `C[C@H]1CCC(c2ccccc2)S(=O)(=O)N1Cc1ccc(N2CCn3c(n[nH]c3=O)C2)cc1F` (single isomer, unassigned) [Example 157] is 36-fold higher in IC50: 47 nM for the first, 1700 nM for the second.

First: C[C@H]1CCC(c2ccccc2)S(=O)(=O)N1Cc1ccc(N2CCn3nccc3C2)cc1F (single isomer, unassigned) [Example 133]
Second: C[C@H]1CCC(c2ccccc2)S(=O)(=O)N1Cc1ccc(N2CCn3cncc3C2)cc1F (single isomer, unassigned) [Example 154]
The IC50 of the first is 1.7-fold higher: 244 nM for the first, 145 nM for the second.

Going from `C[C@H]1CCC(c2ccccc2)S(=O)(=O)N1Cc1ccc(N2CCn3nccc3C2)cc1F` (single isomer, unassigned) [Example 134] to `C[C@H]1CCC(c2ccccc2)S(=O)(=O)N1Cc1ccc(N2CCn3cncc3C2)cc1F` (single isomer, unassigned) [Example 155], the IC50 falls from 330 nM to 175 nM (1.9-fold).

First: C[C@H]1CCC(c2ccccc2)S(=O)(=O)N1Cc1ccc(N2CCC(c3nncn3C)CC2)cc1F (single isomer, unassigned) [Example 137]
Second: C[C@H]1CCC(c2ccccc2)S(=O)(=O)N1Cc1ccc(N2CCC(c3nccn3C)CC2)cc1F (single isomer, unassigned) [Example 139]
The IC50 of the first is 1.8-fold higher: 2480 nM for the first, 1390 nM for the second. The second is the more potent here.

Going from `C[C@H]1CCC(c2ccccc2)S(=O)(=O)N1Cc1ccc(N2CCC(c3nncn3C)CC2)cc1F` (single isomer, unassigned) [Example 138] to `C[C@H]1CCC(c2ccccc2)S(=O)(=O)N1Cc1ccc(N2CCC(c3nccn3C)CC2)cc1F` (single isomer, unassigned) [Example 140], the IC50 falls from 1100 nM to 410 nM (2.7-fold).

`C[C@H]1CCC(c2ccccc2)S(=O)(=O)N1Cc1ccc(N2CCC(c3nnn[nH]3)CC2)cc1F` (single isomer, unassigned) [Example 141] and `C[C@H]1CCC(c2ccccc2)S(=O)(=O)N1Cc1ccc(N2CCC(c3n[nH]c(=O)o3)CC2)cc1F` (single isomer, unassigned) [Example 143] are within 1.5-fold of each other in IC50: 57 nM for the first, 44 nM for the second.

Going from `C[C@H]1CCC(c2ccccc2)S(=O)(=O)N1Cc1ccc(N2CCC(c3nnn[nH]3)CC2)cc1F` (single isomer, unassigned) [Example 142] to `C[C@H]1CCC(c2ccccc2)S(=O)(=O)N1Cc1ccc(N2CCC(c3n[nH]c(=O)o3)CC2)cc1F` (single isomer, unassigned) [Example 144], the IC50 falls from 192 nM to 21 nM (9.1-fold).

Compared with `C[C@H]1CCC(c2ccccc2)S(=O)(=O)N1Cc1ccc(N2CCc3[nH]ncc3C2)cc1F` (single isomer, unassigned) [Example 145], `C[C@H]1CCC(c2ccccc2)S(=O)(=O)N1Cc1ccc(N2CCn3c(n[nH]c3=O)C2)cc1F` (single isomer, unassigned) [Example 158] is 16-fold higher in IC50: 242 nM for the first, 3930 nM for the second. The first is the more potent here.

Going from `CON(C)C(=O)C1CCN(c2ccc(CN3[C@@H](C)CCC(c4ccccc4)S3(=O)=O)c(F)c2)CC1` (single isomer, unassigned) [Example 146] to `C[C@H]1CCC(c2ccccc2)S(=O)(=O)N1Cc1ccc(N2CCC(c3cc(O)no3)CC2)cc1F` (single isomer, unassigned) [Example 152], the IC50 falls from 142 nM to 29 nM (4.9-fold).

Compared with `CON(C)C(=O)C1CCN(c2ccc(CN3[C@@H](C)CCC(c4ccccc4)S3(=O)=O)c(F)c2)CC1` (single isomer, unassigned) [Example 147], `C[C@H]1CCC(c2ccccc2)S(=O)(=O)N1Cc1ccc(N2CCC(c3cc(O)no3)CC2)cc1F` (single isomer, unassigned) [Example 153] is 32-fold lower in IC50: 1780 nM for the first, 55 nM for the second.

First: C[C@H]1CCC(c2ccccc2)S(=O)(=O)N1Cc1ccc(N2CCn3cnnc3C2)cc1F (single isomer, unassigned) [Example 148]
Second: C[C@H]1CCC(c2ccccc2)S(=O)(=O)N1Cc1ccc(N2CCc3[nH]ncc3C2)cc1F (single isomer, unassigned) [Example 156]
The IC50 of the first is 5.9-fold higher: 1600 nM for the first, 272 nM for the second. The second is the more potent here.

`C[C@H]1CCC(c2ccccc2)S(=O)(=O)N1Cc1ccc(N2CCn3cnnc3C2)cc1F` (single isomer, unassigned) [Example 149] showed an IC50 of 1460 nM.
